Reference: US20220323406A1, “METHODS AND COMPOSITIONS FOR DIFFERENTIATING STEM CELLS” (Massachusetts Institute of Technology, priority 2019, published 2022)

Columns and labels:
[1] = tested on: ENR+CD organoids (ISC to Paneth cell differentiation); assay: Primary screen: basal (non-stimulated) lysozyme secretion LYZ.NS, 2.5-D 384-well ENR+CD organoid differentiation; type: cell-based, mouse; details: primary screen; for Dose.FC.LYZ.NS: FC relative to plate median; for Z.LYZ.NS: standard z score
From the text: (§1) High-throughput screening.

[2] = tested on: ENR+CD organoids (ISC to Paneth cell differentiation); assay: Primary screen: CCh-stimulated lysozyme secretion LYZ.S, 2.5-D 384-well ENR+CD organoid differentiation; type: cell-based, mouse; details: primary screen; for Dose.FC.LYZ.S: FC relative to plate median
From the text: as §1

ENR+CD organoids = assay: Primary screen: ATP (CellTiter-Glo 3D, CTG) cell number/viability, 2.5-D 384-well ENR+CD organoids; details: primary screen; for Dose.FC.CTG: FC relative to plate median; for Z.CTG: standard z score;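 as to all read-outs here: compounds given at plating and again on day 3 over a 6-day differentiation from ENR+CV stem-cell-enriched precursors, ATP measured on day 6, plate median as control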

SMILES	Dose.FC.LYZ.NS ([1]; dose 0.08 uM) [log2 fold change]	Z.LYZ.NS ([1]; dose 0.08 uM)	Dose.FC.LYZ.NS ([1]; dose 0.40 uM) [log2 fold change]	Z.LYZ.NS ([1]; dose 0.40 uM)	Dose.FC.LYZ.NS ([1]; dose 2.00 uM) [log2 fold change]	Z.LYZ.NS ([1]; dose 2.00 uM)	Dose.FC.LYZ.NS ([1]; dose 10.00 uM) [log2 fold change]	Z.LYZ.NS ([1]; dose 10.00 uM)	Dose.FC.LYZ.S ([2]; dose 0.08 uM) [log2 fold change]	Dose.FC.LYZ.S ([2]; dose 0.40 uM) [log2 fold change]	Dose.FC.LYZ.S ([2]; dose 2.00 uM) [log2 fold change]	Dose.FC.LYZ.S ([2]; dose 10.00 uM) [log2 fold change]	Dose.FC.CTG (ENR+CD organoids; dose 0.08 uM) [log2 fold change]	Dose.FC.CTG (ENR+CD organoids; dose 0.40 uM) [log2 fold change]	Dose.FC.CTG (ENR+CD organoids; dose 2.00 uM) [log2 fold change]	Dose.FC.CTG (ENR+CD organoids; dose 10.00 uM) [log2 fold change]	other results
Cc1cc(SCc2sc(-c3ccc(C(F)(F)F)c(F)c3)nc2C)ccc1OCC(=O)O [GW0742]																	Dose.FC.LYZ.NS (log2 fold change) ([1]; dose 0.08 uM): 0.052; Z.LYZ.NS (standard z score) ([1]; dose 0.08 uM): 0.454; Dose.FC.LYZ.NS (log2 fold change) ([1]; dose 0.40 uM): 0.045; Z.LYZ.NS (standard z score) ([1]; dose 0.40 uM): 0.390; Dose.FC.LYZ.NS (log2 fold change) ([1]; dose 2.00 uM): 0.026; Z.LYZ.NS (standard z score) ([1]; dose 2.00 uM): 0.231; Dose.FC.LYZ.NS (log2 fold change) ([1]; dose 10.00 uM): −0.152; Z.LYZ.NS (standard z score) ([1]; dose 10.00 uM): −1.322; Dose.FC.LYZ.S (log2 fold change) ([2]; dose 0.08 uM): 0.048; Dose.FC.LYZ.S (log2 fold change) ([2]; dose 0.40 uM): 0.106; Dose.FC.LYZ.S (log2 fold change) ([2]; dose 2.00 uM): 0.014; Dose.FC.LYZ.S (log2 fold change) ([2]; dose 10.00 uM): −0.183; Dose.FC.CTG (log2 fold change) (ENR+CD organoids; dose 0.08 uM): −0.751; Z.CTG (standard z score) (ENR+CD organoids; dose 0.08 uM): −1.794; Dose.FC.CTG (log2 fold change) (ENR+CD organoids; dose 0.40 uM): −0.489; Z.CTG (standard z score) (ENR+CD organoids; dose 0.40 uM): −1.167; Dose.FC.CTG (log2 fold change) (ENR+CD organoids; dose 2.00 uM): −0.249; Z.CTG (standard z score) (ENR+CD organoids; dose 2.00 uM): −0.596; Dose.FC.CTG (log2 fold change) (ENR+CD organoids; dose 10.00 uM): −0.451; Z.CTG (standard z score) (ENR+CD organoids; dose 10.00 uM): −1.078
O=C(NC(Cc1cc(=O)[nH]c2ccccc12)C(=O)O)c1ccc(Cl)cc1 (stereo not drawn) [Rebamipide]	0.096	0.832	−0.091	−0.793	−0.090	−0.780	−0.089	−0.773	−0.014	0.014	−0.106	−0.063	−0.256	−0.510	−0.203	−0.281	
O=C1CC(=O)c2c(Cl)c(Cl)c(Cl)c(Cl)c21 [TCID]	0.049	0.431	−0.018	−0.155	0.066	0.578	−0.018	−0.159	0.062	0.017	−0.066	−0.054	−0.136	−0.007	−0.217	−0.228	Z.CTG (ENR+CD organoids; dose 0.08 uM): −0.325; Z.CTG (ENR+CD organoids; dose 0.40 uM): −0.017; Z.CTG (ENR+CD organoids; dose 2.00 uM): −0.517; Z.CTG (ENR+CD organoids; dose 10.00 uM): −0.545
CCCN[C@H]1CCc2nc(N)sc2C1 [Pramipexole]	0.057	0.495	0.027	0.234	0.027	0.239	0.005	0.043	0.050	0.123	0.041	0.071	0.109	0.182	0.026	0.231	
